Article PMC10004634 (PLOS ONE, 2023)
Entries after “also recorded” stand apart in the source; their conditions may differ.

Tested on: TMD8 cells
Test: RT-qPCR of IRF4, BCL6, MYC mRNA
Format: cell-based, human
Settings: 24 h, tirabrutinib 1 μM, BMS-345541 10 μM, MK-2206 1 μM, refametinib 0.1 μM
Procedure: After culturing, total RNA was isolated from cells using the RNeasy Plus Mini Kit (Qiagen), then cDNA was prepared from total RNA using the SuperScript VILO cDNA Synthesis Kit (Invitrogen) following the kit instructions. For quantification of each mRNA expression level, PCR was performed using TaqMan Fast Universal PCR Master Mix (Thermo Fisher Scientific) under the following conditions with the AriaMx Real Time PCR System (Agilent Technologies): 95°C for 3 min, followed by 40 cycles at 95°C for 5 s and 60°C for 20 s with continuous fluorescence measurement. All PCRs were performed in triplicate, and the mRNA expression of GAPDH was used as an internal control. The results (fold changes of the threshold cycle [Ct] relative to the control group) were obtained using the 2^−ΔΔCt method. The TaqMan probes for IRF4 (Assay ID: Hs00180031_m1), BCL6 (Assay ID: Hs00153368_m1), MYC (Assay ID: Hs00153408_m1), and GAPDH (Assay ID: Hs02786624_g1) were purchased from Thermo Fisher Scientific. Statistical tests were performed with the SAS 9.4 (SAS Institute Japan Ltd., Tokyo, Japan) TS1M4-based EXSUS system version 10.1.3 (CAC Corporation, Tokyo, Japan). The t-test or Dunnett test was used to compare mRNA expression in the DMSO- and compound-treated groups. The statistical tests were two-sided with a 5% significance level.

Row | Structure (SMILES) | MYC mRNA expression | IRF4 mRNA expression
1 | COc1cc(F)c(F)c(Nc2ccc(I)cc2F)c1NS(=O)(=O)C1(C[C@H](O)CO)CC1 [refametinib] | tended to downregulate; also recorded: partially downregulated | –
2 | NC1(c2ccc(-c3nc4ccn5c(=O)[nH]nc5c4cc3-c3ccccc3)cc2)CCC1 [MK-2206] | did not downregulate | did not downregulate
3 | Cc1ccc2nc(NCCN)c3ncc(C)n3c2c1 [BMS-345541] | significant downregulation; also recorded: strong inhibition | significant downregulation; also recorded: strongly inhibited
